From the supplement of paper PMC6965134
± gives the standard deviation of the averaged measurements.

Test: TIMS collisional cross section (CCS, N2) of the lipid ion; higher = larger ion cross section
Settings: ionization mode: positive, one isomer drawn

TIMS collisional cross section (sample type: HeLa)	TIMS collisional cross section (sample type: Liver)	TIMS collisional cross section (sample type: plasma)	Compound
305.4 ± 0.14 Å²	305.3 Å²	305.5 Å²	CCCCCCCC/C=C\CCCCCCCCCCCCCC(=O)N[C@@H](COP(=O)([O-])OCC[N+](C)(C)C)[C@H](O)/C=C/CCCCCCCCCCCCC [SM d18:1_24:1@] (ion (formula + adduct): [C47H93N2O6P+H] 1+)
275 Å²			CCC/C=C\CCCCCCCC/C=C/[C@@H](O)[C@H](COP(=O)([O-])OCC[N+](C)(C)C)NC(=O)CCCCCCCCCCCCC [SM d18:2_14:0@] (ion (formula + adduct): [C37H73N2O6P+H] 1+)
281.4 Å²		281.3 Å²	CCC/C=C\CCCCCCCC/C=C/[C@@H](O)[C@H](COP(=O)([O-])OCC[N+](C)(C)C)NC(=O)CCCCCCCCCCCCCCC [SM d18:2_16:0@] (ion (formula + adduct): [C39H77N2O6P+H] 1+)
		299.9 Å²	CCC/C=C\CCCCCCCC/C=C/[C@@H](O)[C@H](COP(=O)([O-])OCC[N+](C)(C)C)NC(=O)CCCCCCCCCCCCCCCCCCCCC [SM d18:2_22:0@] (ion (formula + adduct): [C45H89N2O6P+H] 1+)
283 Å²	281.3 ± 0.57 Å²	282.9 Å²	CCCCCCCCCCCCCC(=O)OC[C@@H](COC(=O)CCCCCCCCCCC)OC(=O)CCCCCCCCCCC [TG 12:0_12:0_14:0] (ion (formula + adduct): [C41H78O6+NH4] 1+)
		278.9 Å²	CCCC/C=C\CCCCCCCC(=O)OC[C@@H](COC(=O)CCCCCCCCCCC)OC(=O)CCCCCCCCCCC [TG 12:0_12:0_14:1] (ion (formula + adduct): [C41H76O6+NH4] 1+)
	280.4 Å²		CCCCC/C=C\CCCCCCCC(=O)OC[C@@H](COC(=O)CCCCCCCCCCC)OC(=O)CCCCCCCCCCC [TG 12:0_12:0_15:1] (ion (formula + adduct): [C42H78O6+NH4] 1+)
288 Å²			CCCCCCCCCCCCCCCC(=O)OC[C@@H](COC(=O)CCCCCCCCCCC)OC(=O)CCCCCCCCCCC [TG 12:0_12:0_16:0] (ion (formula + adduct): [C43H82O6+NH4] 1+)
	284.2 Å²	284.1 Å²	CCCCCC/C=C\CCCCCCCC(=O)OC[C@@H](COC(=O)CCCCCCCCCCC)OC(=O)CCCCCCCCCCC [TG 12:0_12:0_16:1] (ion (formula + adduct): [C43H80O6+NH4] 1+)
	291.3 Å²		CCCCCCCC/C=C\CCCCCCCC(=O)OC[C@@H](COC(=O)CCCCCCCCCCC)OC(=O)CCCCCCCCCCC [TG 12:0_12:0_18:1] (ion (formula + adduct): [C45H84O6+NH4] 1+)
	282.7 Å²		CCCCCCCCCCCCC(=O)OC[C@@H](COC(=O)CCCCCCCCCCC)OC(=O)CCCCCCCCCCCC [TG 12:0_13:0_13:0] (ion (formula + adduct): [C41H78O6+NH4] 1+)
289 Å²	289.1 Å²	289.1 Å²	CCCCCCCCCCCCCC(=O)OC[C@@H](COC(=O)CCCCCCCCCCC)OC(=O)CCCCCCCCCCCCC [TG 12:0_14:0_14:0] (ion (formula + adduct): [C43H82O6+NH4] 1+)
291.9 Å²			CCCCCCCCCCCCCCC(=O)OC[C@@H](COC(=O)CCCCCCCCCCC)OC(=O)CCCCCCCCCCCCC [TG 12:0_14:0_15:0] (ion (formula + adduct): [C44H84O6+NH4] 1+)
289.5 Å²			CCCCC/C=C\CCCCCCCC(=O)OC[C@@H](COC(=O)CCCCCCCCCCC)OC(=O)CCCCCCCCCCCCC [TG 12:0_14:0_15:1] (ion (formula + adduct): [C44H82O6+NH4] 1+)
294.93 ± 0.32 Å²	295.2 ± 0.42 Å²	295.5 Å²	CCCCCCCCCCCCCCCC(=O)OC[C@@H](COC(=O)CCCCCCCCCCC)OC(=O)CCCCCCCCCCCCC [TG 12:0_14:0_16:0] (ion (formula + adduct): [C45H86O6+NH4] 1+)
292.8 Å²			CCCCCC/C=C\CCCCCCCC(=O)OC[C@@H](COC(=O)CCCCCCCCCCC)OC(=O)CCCCCCCCCCCCC [TG 12:0_14:0_16:1] (ion (formula + adduct): [C45H84O6+NH4] 1+)
		298.9 Å²	CCCCCCCC/C=C\CCCCCCCC(=O)OC[C@@H](COC(=O)CCCCCCCCCCC)OC(=O)CCCCCCCCCCCCC [TG 12:0_14:0_18:1] (ion (formula + adduct): [C47H88O6+NH4] 1+)
	295.4 Å²	295.8 Å²	CCCCC/C=C\C/C=C\CCCCCCCC(=O)OC[C@@H](COC(=O)CCCCCCCCCCC)OC(=O)CCCCCCCCCCCCC [TG 12:0_14:0_18:2] (ion (formula + adduct): [C47H86O6+NH4] 1+)
		291.9 Å²	CCCC/C=C\CCCCCCCC(=O)O[C@H](COC(=O)CCCCCCCCCCC)COC(=O)CCCCCCCCCCCCCCC [TG 12:0_14:1_16:0] (ion (formula + adduct): [C45H84O6+NH4] 1+)

TIMS collisional cross section (sample type: HeLa)	TIMS collisional cross section (sample type: Liver)	TIMS collisional cross section (sample type: plasma)	Compound
290.3 Å²			CCCC/C=C\CCCCCCCC(=O)O[C@@H](COC(=O)CCCCCCC/C=C\CCCCCC)COC(=O)CCCCCCCCCCC [TG 12:0_14:1_16:1] (ion (formula + adduct): [C45H82O6+NH4] 1+)
		293.8 Å²	CCCC/C=C\CCCCCCCC(=O)O[C@@H](COC(=O)CCCCCCC/C=C\C/C=C\CCCCC)COC(=O)CCCCCCCCCCC [TG 12:0_14:1_18:2] (ion (formula + adduct): [C47H84O6+NH4] 1+)
		302.1 Å²	CCCCCCCCCCCCCCCCC(=O)OC[C@@H](COC(=O)CCCCCCCCCCC)OC(=O)CCCCCCCCCCCCCC [TG 12:0_15:0_17:0] (ion (formula + adduct): [C47H90O6+NH4] 1+)
	299.2 Å²		CCCCCC/C=C\CCCCCCCC(=O)OC[C@@H](COC(=O)CCCCCCCCCCC)OC(=O)CCCCCCCCCCCCCCC [TG 12:0_16:0_16:1] (ion (formula + adduct): [C47H88O6+NH4] 1+)
	304.5 Å²		CCCCCCCCCCCCCCCCC(=O)OC[C@@H](COC(=O)CCCCCCCCCCC)OC(=O)CCCCCCCCCCCCCCC [TG 12:0_16:0_17:0] (ion (formula + adduct): [C48H92O6+NH4] 1+)
305.7 Å²			CCCCCCCC/C=C\CCCCCCCC(=O)OC[C@@H](COC(=O)CCCCCCCCCCC)OC(=O)CCCCCCCCCCCCCCC [TG 12:0_16:0_18:1] (ion (formula + adduct): [C49H92O6+NH4] 1+)
		307.4 Å²	CCCCC/C=C\C/C=C\C/C=C\C/C=C\CCCC(=O)OC[C@@H](COC(=O)CCCCCCCCCCC)OC(=O)CCCCCCCCCCCCCCC [TG 12:0_16:0_20:4] (ion (formula + adduct): [C51H90O6+NH4] 1+)
	307.6 Å²		CC/C=C\C/C=C\C/C=C\C/C=C\C/C=C\C/C=C\CCC(=O)OC[C@@H](COC(=O)CCCCCCCCCCC)OC(=O)CCCCCCCCCCCCCCC [TG 12:0_16:0_22:6] (ion (formula + adduct): [C53H90O6+NH4] 1+)
	303 Å²		CCCCCC/C=C\CCCCCCCC(=O)O[C@H](COC(=O)CCCCCCCCCCC)COC(=O)CCCCCCCCCCCCCCCC [TG 12:0_16:1_17:0] (ion (formula + adduct): [C48H90O6+NH4] 1+)
		303.25 ± 0.35 Å²	CCCCCC/C=C\CCCCCCCC(=O)O[C@@H](COC(=O)CCCCCCC/C=C\CCCCCCCC)COC(=O)CCCCCCCCCCC [TG 12:0_16:1_18:1] (ion (formula + adduct): [C49H90O6+NH4] 1+)
	301.1 Å²		CCCCC/C=C\C/C=C\CCCCCCCC(=O)OC[C@@H](COC(=O)CCCCCCCCCCC)OC(=O)CCCCCCC/C=C\CCCCCC [TG 12:0_16:1_18:2] (ion (formula + adduct): [C49H88O6+NH4] 1+)
295.3 Å²			CCCCCCCCCCCCCCCC(=O)OC[C@@H](COC(=O)CCCCCCCCCCCC)OC(=O)CCCCCCCCCCCC [TG 13:0_13:0_16:0] (ion (formula + adduct): [C45H86O6+NH4] 1+)
		292.3 Å²	CCCCCCCCCCCCCC(=O)OC[C@@H](COC(=O)CCCCCCCCCCCC)OC(=O)CCCCCCCCCCCCC [TG 13:0_14:0_14:0] (ion (formula + adduct): [C44H84O6+NH4] 1+)
298.2 Å²	298.5 Å²	298.4 ± 0.14 Å²	CCCCCCCCCCCCCCCC(=O)OC[C@@H](COC(=O)CCCCCCCCCCCC)OC(=O)CCCCCCCCCCCCC [TG 13:0_14:0_16:0] (ion (formula + adduct): [C46H88O6+NH4] 1+)
296.4 Å²	296 Å²	296.1 Å²	CCCCCC/C=C\CCCCCCCC(=O)OC[C@@H](COC(=O)CCCCCCCCCCCC)OC(=O)CCCCCCCCCCCCC [TG 13:0_14:0_16:1] (ion (formula + adduct): [C46H86O6+NH4] 1+)
	301.8 Å²		CCCCCCCCCCCCCCCCC(=O)OC[C@@H](COC(=O)CCCCCCCCCCCC)OC(=O)CCCCCCCCCCCCC [TG 13:0_14:0_17:0] (ion (formula + adduct): [C47H90O6+NH4] 1+)
	303.1 Å²		CCCCCCCC/C=C\CCCCCCCC(=O)OC[C@@H](COC(=O)CCCCCCCCCCCC)OC(=O)CCCCCCCCCCCCC [TG 13:0_14:0_18:1] (ion (formula + adduct): [C48H90O6+NH4] 1+)
	305.2 Å²		CC/C=C\C/C=C\C/C=C\C/C=C\C/C=C\C/C=C\CCC(=O)OC[C@@H](COC(=O)CCCCCCCCCCCC)OC(=O)CCCCCCCCCCCCC [TG 13:0_14:0_22:6] (ion (formula + adduct): [C52H88O6+NH4] 1+)
